Laboratory results reported in article PMC10605449 (Biosensors, 2023).
Where a chain is given by its changes, count along the chain named.

What was measured:
Assay type in all cases: binding
MARK3(48-370) Mutant 2 = target: T1, MARK3(48-370) Mutant 2 (Homo sapiens, UniProt P27448, E139D/I62L/L128I/L130I/T204H/V116I/V205Q); assay: SPR Extract2Chip, cellular biotinylated MARK3 Mutant 2, GSK461364A injected; conditions: 15 °C
T1 construct: made in house; host or cells: E. coli Rosetta 2, co-expressed with BirA; soluble lysate used without purification
T1 sequence (P27448 48-370 I62L/V116I/L128I/L130I/E139D/T204H/V205Q): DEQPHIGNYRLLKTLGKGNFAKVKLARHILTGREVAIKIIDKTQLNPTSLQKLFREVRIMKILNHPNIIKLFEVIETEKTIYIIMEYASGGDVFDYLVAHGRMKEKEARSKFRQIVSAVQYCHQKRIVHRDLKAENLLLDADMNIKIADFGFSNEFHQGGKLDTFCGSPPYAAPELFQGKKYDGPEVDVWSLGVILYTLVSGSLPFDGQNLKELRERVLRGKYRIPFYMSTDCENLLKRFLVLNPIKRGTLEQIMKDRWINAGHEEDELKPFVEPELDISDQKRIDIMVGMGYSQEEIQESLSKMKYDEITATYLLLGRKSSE
Protocol: (§1) The cellular biotinylation of MARK3(48-370) kinase domain mutants followed the same approach as described for CypD. The 6 different mutants were expressed in Rosetta^TM 2 in PB media, and induced with 100 µM IPTG overnight at 18 °C.
(§2) The cellular biotinylated MARK3 NUAK2-like mutants were immobilized using the approach described in Section 2.5.2. The soluble cell lysates were diluted to a final concentration of 200 µg/mL, then injected over the neutravidin surfaces for 200 or 1400 s in order to reach 1000 to 2300 RU.
(§3) The interaction analysis cycles consisted of 140 s of sample injection followed by 350 to 600 s of running buffer flow. The running buffer was composed of 20 mM HEPES pH 7.4, 100 mM NaCl, 5 mM MgCl2, 1 mM EGTA, 1 mM DTT, 0.05% Tween-20, and 2% DMSO, and the experiment was performed at 15 °C.
(§4) All sensorgrams were processed by first subtracting the binding response recorded from the control surface (reference spot, where only the avidin protein is immobilized), followed by subtraction of the buffer blank injection from the reaction spot. All datasets were fitted to a simple 1:1 Langmuir interaction model to determine the kinetic rate constants, and the interaction affinity was additionally calculated at a steady state when applicable. […]

MARK3(48-370) Mutant 5 = target: T2, MARK3(48-370) Mutant 5 (Homo sapiens, UniProt P27448, A68G/E139D/F199L/F67Y/G137R/I62L/L128I/L130I/N66T/T204H/V116I/V205Q); assay: SPR Extract2Chip, cellular biotinylated MARK3 Mutant 5, GSK461364A injected; conditions: 15 °C
T2 construct: made in house; host or cells: E. coli Rosetta 2, co-expressed with BirA; soluble lysate used without purification
T2 sequence (P27448 48-370 I62L/N66T/F67Y/A68G/V116I/L128I/L130I/G137R/E139D/F199L/T204H/V205Q): T1 sequence (P27448 48-370 I62L/V116I/L128I/L130I/E139D/T204H/V205Q) with N19T, F20Y, A21G, G90R, F152L
Protocol: as §1, §2, §3, §4

MARK3(48-370) Mutant 6 = target: T3, MARK3(48-370) Mutant 6 (Homo sapiens, UniProt P27448, A68G/E139D/F199L/F67Y/G137R/I62L/L128I/L130I/L72K/N66T/T204H/V116I/V205Q); assay: SPR Extract2Chip, cellular biotinylated MARK3 Mutant 6, GSK461364A injected; conditions: 15 °C
T3 construct: made in house; host or cells: E. coli Rosetta 2, co-expressed with BirA; soluble lysate used without purification
T3 sequence (P27448 48-370 I62L/N66T/F67Y/A68G/L72K/V116I/L128I/L130I/G137R/E139D/F199L/T204H/V205Q): T1 sequence (P27448 48-370 I62L/V116I/L128I/L130I/E139D/T204H/V205Q) with N19T, F20Y, A21G, L25K, G90R, F152L
Protocol: as §1, §2, §3, §4

NUAK2(1-628) = target: T4, NUAK2(1-628) (Homo sapiens, UniProt Q9H093); assay: SPR, pure GST-NUAK2(1-628) immobilized by amine coupling, GSK461364A injected; conditions: pure NUAK2(1-628); 15 °C
T4 construct: GST-NUAK2(1-628) was purchased from Carna Biosciences, Inc (Kobe, Japan); purchased Carna Biosciences, Inc (Kobe, Japan)
T4 sequence (Q9H093 1-628): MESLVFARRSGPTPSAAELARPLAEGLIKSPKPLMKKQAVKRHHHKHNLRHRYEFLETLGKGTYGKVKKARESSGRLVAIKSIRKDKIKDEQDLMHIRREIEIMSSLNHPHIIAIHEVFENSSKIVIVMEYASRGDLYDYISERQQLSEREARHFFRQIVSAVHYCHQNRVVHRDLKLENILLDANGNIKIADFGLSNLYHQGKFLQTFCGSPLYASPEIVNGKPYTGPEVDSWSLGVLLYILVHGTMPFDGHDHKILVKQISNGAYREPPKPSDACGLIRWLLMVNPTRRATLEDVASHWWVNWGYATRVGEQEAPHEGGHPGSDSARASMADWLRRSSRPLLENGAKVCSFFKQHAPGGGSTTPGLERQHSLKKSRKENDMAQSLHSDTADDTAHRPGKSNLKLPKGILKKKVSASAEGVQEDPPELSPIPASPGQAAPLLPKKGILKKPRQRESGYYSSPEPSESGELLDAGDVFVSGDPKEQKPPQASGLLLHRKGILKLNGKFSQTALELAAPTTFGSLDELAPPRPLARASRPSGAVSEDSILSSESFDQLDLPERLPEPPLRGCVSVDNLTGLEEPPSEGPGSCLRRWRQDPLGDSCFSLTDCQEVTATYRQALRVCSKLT
Protocol: as §3
All sensorgrams were processed by first subtracting the binding response recorded from the control surface (reference spot, where only the avidin protein is immobilized), followed by subtraction of the buffer blank injection from the reaction spot. All datasets were fitted to a simple 1:1 Langmuir interaction model to determine the kinetic rate constants, and the interaction affinity was additionally calculated at a steady state when applicable. In cases where small molecules were present during the assay, a DMSO solvent correction (1–3%) was applied to account for variations in bulk signal and to achieve high-quality data. The experiments with immobilized purified proteins were performed on a Biacore 4000 (Cytiva, Uppsala, Sweden), and the interaction was evaluated using the provided Biacore 4000 evaluation software, while the experiments with soluble cell lysates on a Biacore T200 (Cytiva, Uppsala, Sweden) used the provided Biacore T200 evaluation software. All SPR experiments were performed in duplicate.

C[C@@H](Oc1cc(-n2cnc3ccc(CN4CCN(C)CC4)cc32)sc1C(N)=O)c1ccccc1C(F)(F)F [GSK461364A]
kd ± SD (MARK3(48-370) Mutant 2): 0.081 ± 0.015 s⁻¹
kd ± SD (MARK3(48-370) Mutant 5): 0.035 ± 0.012 s⁻¹
kd ± SD (MARK3(48-370) Mutant 6): 0.021 ± 0.0012 s⁻¹
kd ± SD (NUAK2(1-628)): 0.031 ± 0.017 s⁻¹
